Laboratory results reported in patent US10813903B2, “Compositions comprising 15-HEPE and methods of using the same” (Afimmune Limited, priority 2013, dated 2020).

Tested on: STAM model of Non-alcoholic Steatohepatitis
Experiment: in vivo efficacy study of 15-OHEPA and EPA in STAM model of non-alcoholic steatohepatitis
Set-up: species or system C57BL/6 mice
Conditions: for liver weight as compared to the vehicle control: FIG. 1.2; for NAFLD Activity score (NAS) as compared to the vehicle control: HE staining, FIGS. 2.1 and 2.2
Source text: The purpose of this study was to examine the effects of 15-OHEPA and EPA in the STAM model of Non-alcoholic Steatohepatitis. Pathogen-free15-day-pregnant C57BL/6 mice were obtained from Charles River Laboratories in Japan Inc. (Kanagawa, Japan). NASH was established in male mice by a single subcutaneous injection of streptozotocin (STZ) (Sigma, USA) after birth and feeding with a high fat diet (HFD; CLEA) Japan, Japan) ad libitum after 4 weeks of age (day 28±2). Mice were randomized into 5 groups of 8 mice at 5 weeks of age (day 35±2) the day before the start of treatment. During the treatment period, individual body weight was measured daily as well as clinical signs of behavior and survival. Group 1 (Vehicle): Eight NASH mice were orally administered vehicle [olive oil] in a volume of 10 mL/kg once daily from 5 to 9 weeks of age. Group 2 (15-OHEPA 50 mg/kg): Eight NASH mice were orally administered vehicle supplemented with 15-OHEPA at a dose of 50 mg/kg once daily from 5 to 9 weeks of age. Group 3 (15-OHEPA 500 mg/kg): Eight NASH mice were orally administered vehicle supplemented with 15-OHEPA at a dose of 500 mg/kg once daily from 5 to 9 weeks of age. Group 4 (EPA 500 mg/kg): Eight NASH mice were orally administered vehicle supplemented with EPA at a dose 500 mg/kg once daily from 5 to 9 weeks of age. Group 5 (positive control): Eight NASH mice were orally administered pure water supplemented with Telmisartan at a dose of 10 mg/kg once daily from 5 to 9 weeks of age. At 9 weeks of age, all mice were sacrificed and the following data was recorded; • Individual liver weight • Liver to body weight ratio Histopathological analyses of liver sections were performed using HE staining (to estimate NAFLD Activity score). For HE staining, sections were cut from paraffin blocks of liver tissue prefixed in Bouin's solution and stained with Lillie-Mayer's Hematoxylin (Muto Pure Chemicals, Japan) and eosin solution (Wako Pure Chemical Industries). NAFLD Activity score (NAS) was calculated according to the criteria of Kleiner (Kleiner D E. et al., Hepatology, 2005; 41:1313). Statistical tests were performed using Bonferroni Multiple Comparison Test. P values <0.05 were considered statistically significant.

[1] = 15-OHEPA 500 mg/kg oral once daily from 5 to 9 weeks of age
[2] = positive control, Telmisartan 10 mg/kg oral once daily from 5 to 9 weeks of age

| SMILES | liver weight as compared to the vehicle control [1] | NAFLD Activity score (NAS) as compared to the vehicle control [1] | potency in the treatment of FLD relative to EPA (summary statement) | liver weight as compared to the vehicle control [2] | NAFLD Activity score (NAS) as compared to the vehicle control [2] |
| --- | --- | --- | --- | --- | --- |
| CCC=CCC(O)C=CC=CCC=CCC=CCCCC(=O)O (centres unmarked) [15-OHEPA, 15-Hydroxy-eicosa-5,8,11,13,17-pentaenoic acid] | significant reduction | significantly decreased | more potent than EPA |  |  |
| CCCc1nc2c(C)cc(-c3nc4ccccc4n3C)cc2n1Cc1ccc(-c2ccccc2C(=O)O)cc1 [telmisartan, Telmisartan, reference compound] |  |  |  | significant reduction | significantly decreased |
